The values below come from PMC4764975, “Probing the enzyme kinetics, allosteric modulation and activation of α1- and α2-subunit-containing AMP-activated protein kinase (AMPK) heterotrimeric complexes by pharmacological and physiological activators” (Biochemical Journal, 2016).

Assay [1] addresses AMPK heterotrimeric complex α1β2γ1 (UniProt Q13131).
Assay [2] has as its target AMPK heterotrimeric complex α2β2γ1 (UniProt P54646).
The target in assay [3] is T1, AMPK α1β1γ1 (Homo sapiens, UniProt P54619+Q13131+Q9Y478).
T1 construct: Recombinant full-length AMPK heterotrimeric complexes α1β1γ1, α1β2γ1, α1β2γ3, α2β1γ1, α2β2γ1 and α2β2γ3 were cloned; 6X-His (N); made in house; host or cells: E. coli BL21-CodonPlus (DE3)-RIPL
T1 sequence (Q13131 whole entry): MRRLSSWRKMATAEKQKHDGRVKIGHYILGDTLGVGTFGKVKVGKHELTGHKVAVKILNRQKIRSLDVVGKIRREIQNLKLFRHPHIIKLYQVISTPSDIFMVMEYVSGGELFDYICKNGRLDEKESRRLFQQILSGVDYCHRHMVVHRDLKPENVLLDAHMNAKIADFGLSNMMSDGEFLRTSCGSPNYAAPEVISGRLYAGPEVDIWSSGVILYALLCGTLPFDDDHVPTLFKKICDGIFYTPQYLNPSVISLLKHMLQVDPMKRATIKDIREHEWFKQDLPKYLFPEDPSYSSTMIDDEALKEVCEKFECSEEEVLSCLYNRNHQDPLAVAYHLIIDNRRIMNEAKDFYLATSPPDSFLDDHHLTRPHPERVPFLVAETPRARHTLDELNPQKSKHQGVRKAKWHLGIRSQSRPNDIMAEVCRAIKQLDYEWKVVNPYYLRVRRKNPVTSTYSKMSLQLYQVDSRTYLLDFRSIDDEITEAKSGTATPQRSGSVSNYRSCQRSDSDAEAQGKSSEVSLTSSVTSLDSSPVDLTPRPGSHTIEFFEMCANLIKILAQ
T1 sequence (Q9Y478 whole entry): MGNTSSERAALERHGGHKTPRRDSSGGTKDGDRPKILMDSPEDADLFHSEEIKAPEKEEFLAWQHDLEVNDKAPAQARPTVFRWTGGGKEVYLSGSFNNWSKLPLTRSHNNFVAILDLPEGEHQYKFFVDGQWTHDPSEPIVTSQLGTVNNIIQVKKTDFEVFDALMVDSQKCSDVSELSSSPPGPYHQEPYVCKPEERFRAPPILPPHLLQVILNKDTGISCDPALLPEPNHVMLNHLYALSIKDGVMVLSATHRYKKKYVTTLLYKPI
T1 sequence (P54619 whole entry): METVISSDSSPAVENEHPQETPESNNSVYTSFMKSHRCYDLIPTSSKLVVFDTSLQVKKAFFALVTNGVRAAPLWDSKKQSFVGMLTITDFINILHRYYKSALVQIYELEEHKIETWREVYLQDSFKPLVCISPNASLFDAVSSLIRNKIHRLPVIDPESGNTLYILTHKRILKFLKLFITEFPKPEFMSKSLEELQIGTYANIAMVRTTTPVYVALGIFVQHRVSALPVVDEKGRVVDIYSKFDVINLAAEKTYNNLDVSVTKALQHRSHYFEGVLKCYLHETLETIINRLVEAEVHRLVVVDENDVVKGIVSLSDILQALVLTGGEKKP
Put plainly: TR-FRET allosteric activation assay. The assay is classed as biochemical. The following applies: 50 nM Cy5-SAMS, ATP at Km. The text has this:
(§1) After excitation at 320 nm, the energy from the Europium donor is transferred to the Cy5 acceptor which in turn generates light at 665 nm. The intensity of the signal is proportional to the level of AMPK-mediated Cy5 substrate phosphorylation. […] Non-specific emission obtained from samples containing all the reagents except enzyme was used to normalize the values.
(§2) The basal kinase activity of the pAMPK isoforms in the absence of activator was normalized to zero (baseline) and the changes in the enzyme activity in the presence of activator at different concentrations was compared with the basal activity.

In assay [4] the target is T2, AMPK α1β2γ1 (Homo sapiens, UniProt O43741+P54619+Q13131).
T2 construct: Recombinant full-length AMPK heterotrimeric complexes α1β1γ1, α1β2γ1, α1β2γ3, α2β1γ1, α2β2γ1 and α2β2γ3 were cloned; 6X-His (N); made in house; host or cells: E. coli BL21-CodonPlus (DE3)-RIPL
T2 sequence (Q13131 whole entry): as the sequence (Q13131 whole entry) above
T2 sequence (O43741 whole entry): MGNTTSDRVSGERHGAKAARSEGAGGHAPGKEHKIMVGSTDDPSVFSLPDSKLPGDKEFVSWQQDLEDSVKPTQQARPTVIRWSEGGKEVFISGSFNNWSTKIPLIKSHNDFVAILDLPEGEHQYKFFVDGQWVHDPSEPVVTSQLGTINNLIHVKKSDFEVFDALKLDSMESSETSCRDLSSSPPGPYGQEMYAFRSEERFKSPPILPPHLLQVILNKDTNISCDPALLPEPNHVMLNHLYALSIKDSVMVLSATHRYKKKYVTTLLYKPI
T2 sequence (P54619 whole entry): as the sequence (P54619 whole entry) above
Put plainly: TR-FRET allosteric activation assay. The assay is classed as biochemical. The following applies: 50 nM Cy5-SAMS, ATP at Km.
From the text: as §1, §2

Assay [5] has as its target T3, AMPK α1β2γ3 (Homo sapiens, UniProt O43741+Q13131+Q9UGI9).
T3 construct: Recombinant full-length AMPK heterotrimeric complexes α1β1γ1, α1β2γ1, α1β2γ3, α2β1γ1, α2β2γ1 and α2β2γ3 were cloned; 6X-His (N); made in house; host or cells: E. coli BL21-CodonPlus (DE3)-RIPL
Put plainly: TR-FRET allosteric activation assay. The assay is classed as biochemical. The following applies: 50 nM Cy5-SAMS, ATP at Km.
From the text: as §1, §2
(In general: TR-FRET usually uses a lanthanide donor and a delayed reading to cut background.)

Assay [6] concerns the target T4, AMPK α2β2γ1 (Homo sapiens, UniProt O43741+P54619+P54646).
T4 construct: Recombinant full-length AMPK heterotrimeric complexes α1β1γ1, α1β2γ1, α1β2γ3, α2β1γ1, α2β2γ1 and α2β2γ3 were cloned; 6X-His (N); made in house; host or cells: E. coli BL21-CodonPlus (DE3)-RIPL
Kind of assay: TR-FRET allosteric activation assay. The assay is classed as biochemical. The note with it: 50 nM Cy5-SAMS, ATP at Km.
From the text: as §1, §2

For assay [7], the target named is T5, AMPK α2β2γ3 (Homo sapiens, UniProt O43741+P54646+Q9UGI9).
T5 construct: Recombinant full-length AMPK heterotrimeric complexes α1β1γ1, α1β2γ1, α1β2γ3, α2β1γ1, α2β2γ1 and α2β2γ3 were cloned; 6X-His (N); made in house; host or cells: E. coli BL21-CodonPlus (DE3)-RIPL
T5 sequence (P54646 whole entry): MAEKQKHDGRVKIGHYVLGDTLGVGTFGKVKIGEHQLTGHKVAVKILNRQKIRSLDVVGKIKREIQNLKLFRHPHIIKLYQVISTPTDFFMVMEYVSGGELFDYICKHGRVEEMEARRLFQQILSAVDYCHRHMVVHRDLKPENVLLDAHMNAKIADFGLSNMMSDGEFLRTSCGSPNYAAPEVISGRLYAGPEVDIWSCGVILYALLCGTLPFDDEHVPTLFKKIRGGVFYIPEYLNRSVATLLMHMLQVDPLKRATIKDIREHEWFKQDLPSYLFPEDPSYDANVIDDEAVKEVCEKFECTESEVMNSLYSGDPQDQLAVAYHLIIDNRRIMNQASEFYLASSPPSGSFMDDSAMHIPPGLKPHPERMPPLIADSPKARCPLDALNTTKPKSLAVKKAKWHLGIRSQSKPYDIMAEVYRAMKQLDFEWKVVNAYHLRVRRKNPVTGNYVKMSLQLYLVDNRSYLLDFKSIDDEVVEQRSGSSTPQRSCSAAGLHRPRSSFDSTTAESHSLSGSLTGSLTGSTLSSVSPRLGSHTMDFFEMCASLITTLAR
T5 sequence (O43741 whole entry): as the sequence (O43741 whole entry) above
T5 sequence (Q9UGI9 whole entry): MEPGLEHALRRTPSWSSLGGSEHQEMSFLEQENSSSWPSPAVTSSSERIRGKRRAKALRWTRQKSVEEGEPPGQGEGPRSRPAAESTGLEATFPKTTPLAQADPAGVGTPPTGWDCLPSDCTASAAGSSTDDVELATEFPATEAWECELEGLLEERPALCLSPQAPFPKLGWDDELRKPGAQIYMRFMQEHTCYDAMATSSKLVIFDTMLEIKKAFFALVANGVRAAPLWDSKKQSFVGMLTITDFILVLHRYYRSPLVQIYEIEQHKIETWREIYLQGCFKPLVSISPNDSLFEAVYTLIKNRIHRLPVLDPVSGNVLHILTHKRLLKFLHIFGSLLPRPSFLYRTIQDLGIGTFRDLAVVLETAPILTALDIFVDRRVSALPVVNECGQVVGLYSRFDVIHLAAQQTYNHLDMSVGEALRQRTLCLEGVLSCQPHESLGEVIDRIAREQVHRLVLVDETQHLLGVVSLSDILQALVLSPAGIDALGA
Put plainly: TR-FRET allosteric activation assay. The assay is classed as biochemical. The following applies: 50 nM Cy5-SAMS, ATP at Km.
From the text: as §1, §2

Assay [8] addresses T1, AMPK α1β1γ1. Kind of assay: Protection of pAMPK α-pThr172/174 from PP2Aα (slot-blot ELISA). The assay is classed as biochemical. The procedure: (§3) Test compound was previously diluted in half-log increments, starting at 40 μM in 100% DMSO, diluted 10-fold in assay buffer and dispensed into a microtitre plate. After 15 min at room temperature, phosphatase was added to the mixture and the reaction was allowed to proceed for 60 min at room temperature. Reactions were quenched by the addition of okadaic acid, and transferred to PVDF membrane using the slot-blot apparatus and subjected to immunoblotting. Phosphatase sensitivity was similarly assessed by subjecting pAMPK to a phosphatase (PP2Aα) treatment using various concentrations and incubation times. The concentration of phosphatase was expressed as nmol of PP2Aα per minute per nmol of pAMPK in the reaction.
(§4) The membrane was blocked with Western Blot Blocking Buffer Reagent (Li-Cor) for 3–4 h at room temperature. […] Following the wash step, goat anti-rabbit 800CW (Rockland) at 1:10000 dilution was used as a secondary antibody. Blots were visualized using the Li-Cor Odyssey infrared imaging system and signal quantification was performed using the Odyssey software.
(§5) Data are mean (n=2), and curves were generated using best-fit values.

Assay [9] addresses T2, AMPK α1β2γ1. The description is as above. The assay is classed as biochemical. The procedure: as §3, §4, §5
Assay [10] addresses T3, AMPK α1β2γ3. Described as above. The assay is classed as biochemical. The method, then: as §3, §4, §5
Another assay has as its target T6, AMPK α2β1γ1 (Homo sapiens, UniProt P54619+P54646+Q9Y478).
T6 construct: Recombinant full-length AMPK heterotrimeric complexes α1β1γ1, α1β2γ1, α1β2γ3, α2β1γ1, α2β2γ1 and α2β2γ3 were cloned; 6X-His (N); made in house; host or cells: E. coli BL21-CodonPlus (DE3)-RIPL
The assay is described as above. The assay is classed as biochemical. The method, then: as §3, §4, §5

Assay [11] has as its target T4, AMPK α2β2γ1. The assay is described as above. The assay is classed as biochemical. The method, then:
as §3, §4, §5

In assay [12] the target is T5, AMPK α2β2γ3. Described as above. The assay is classed as biochemical. The procedure:
as §3, §4, §5

The target of assay [13] is T7, BAP-tagged AMPK α1β1γ1 (Homo sapiens, UniProt P54619+Q13131+Q9Y478).
T7 construct: Recombinant full-length AMPK heterotrimeric complexes α1β1γ1, α1β2γ1, α1β2γ3, α2β1γ1, α2β2γ1 and α2β2γ3 were cloned; 6X-His (N); AviTag (BAP); made in house; host or cells: E. coli (co-expressed with BirA)
T7 sequence (Q13131 whole entry): as the sequence (Q13131 whole entry) above
T7 sequence (Q9Y478 whole entry): as the sequence (Q9Y478 whole entry) above
T7 sequence (P54619 whole entry): as the sequence (P54619 whole entry) above
Kind of assay: SPR direct binding (Biacore). The note with it: in the presence of 150 μM AMP, n=1, read-out: KD. The procedure: (§6) SPR experiments were performed on a Biacore™ 3000 instrument (GE Healthcare). BAP-tagged AMPK isoform (α1β1γ1, α1β2γ1, α2β2γ1, α2β2γ3) was captured on to a streptavidin sensor chip to levels ranging from 4000 to 6000 RU. […] Binding responses were processed using Scrubber 2 (BioLogic Software Pty Ltd) to zero, x-align, double reference and corrected for excluded volume effect of DMSO in the data. […] The compound was injected at a flow rate of 50 μl/min with total contact time of 120 s and dissociation time of 600 s. Rate parameters (kon, koff) and corresponding dissociation constant(KD=koff/kon) were determined by globally fitting all of the experimental data to a simple 1:1 interaction model using Biaeval software (GE Healthcare). To determine nt binding, 10 concentrations with 2-fold dilutions were tested in duplicate. The highest concentration tested was 2 mM. The compound was injected at a flow rate of 50 μl/min with total contact time of 120 s and dissociation time of 300 s. Equilibrium dissociation constant (KD) was determined using a steady-state affinity algorithm available within Scrubber.
(§7) We then compared the binding of nts (AMP, ADP and ATP) to α1β1γ1, α1β2γ1, α2β2γ1 and α2β2γ3 isoforms in the presence and absence of Mg^2+ and Stau, using SPR technique. […]
For orientation: In SPR one partner is held on a chip, and binding of the other changes the refractive index at the surface.

In another assay the target is T8, BAP-tagged AMPK α2β2γ1 (Homo sapiens, UniProt O43741+P54619+P54646).
T8 construct: Recombinant full-length AMPK heterotrimeric complexes α1β1γ1, α1β2γ1, α1β2γ3, α2β1γ1, α2β2γ1 and α2β2γ3 were cloned into a tricistronic vector system; 6X-His (N); made in house; host or cells: E. coli BL21-CodonPlus (DE3)-RIPL, co-expressed with BirA
T8 sequence (P54646 whole entry): as the sequence (P54646 whole entry) above
T8 sequence (O43741 whole entry): as the sequence (O43741 whole entry) above
T8 sequence (P54619 whole entry): as the sequence (P54619 whole entry) above
Put plainly: SPR direct binding (Biacore). The following applies: in the presence of 150 μM AMP, 37-1000 nM. The procedure: as §6, §7

Assay [14] has as its target T7, BAP-tagged AMPK α1β1γ1. Details: method as in PMID 25066137. The following applies: reported previously; cited from earlier work.
The mark [15] stands for this setting: activator concentration for half-maximal protection of pThr172/174, 10 nM AMPK, 40 nM PP2Aα, read-out: Protection pEC50 (converted).
[16] abbreviates: extent of protection (Figure 7).

“Also recorded” adds a separate entry of the source. Like-named read-outs stand apart in the source and are kept apart here.

T4 sequence (P54646 whole entry): as the sequence (P54646 whole entry) above
T4 sequence (O43741 whole entry): as the sequence (O43741 whole entry) above
T4 sequence (P54619 whole entry): as the sequence (P54619 whole entry) above
T3 sequence (Q13131 whole entry): as the sequence (Q13131 whole entry) above
T3 sequence (O43741 whole entry): as the sequence (O43741 whole entry) above
T3 sequence (Q9UGI9 whole entry): as the sequence (Q9UGI9 whole entry) above
T6 sequence (P54646 whole entry): as the sequence (P54646 whole entry) above
T6 sequence (Q9Y478 whole entry): as the sequence (Q9Y478 whole entry) above
T6 sequence (P54619 whole entry): as the sequence (P54619 whole entry) above
Sequence of AMPK heterotrimeric complex α2β2γ1 (P54646 whole entry, chain 1 of 3): as the sequence (P54646 whole entry) above
Sequence of AMPK heterotrimeric complex α2β2γ1 (O43741 whole entry, chain 2 of 3, further chain): as the sequence (O43741 whole entry) above
Sequence of AMPK heterotrimeric complex α2β2γ1 (P54619 whole entry, chain 3 of 3, further chain): as the sequence (P54619 whole entry) above
Sequence of AMPK heterotrimeric complex α1β2γ1 (Q13131 whole entry, chain 1 of 3): as the sequence (Q13131 whole entry) above
Sequence of AMPK heterotrimeric complex α1β2γ1 (O43741 whole entry, chain 2 of 3, further chain): as the sequence (O43741 whole entry) above
Sequence of AMPK heterotrimeric complex α1β2γ1 (P54619 whole entry, chain 3 of 3, further chain): as the sequence (P54619 whole entry) above

Take SAMS peptide: the Km for SAMS peptide (radiometric kinase assay, fixed ATP, no AMP) was 32.3 µM in assay [1] and 108 µM in [2].
One may read the AC50 as the midpoint of the concentration-response curve, whichever way the signal moves. The term Kd denotes the concentration at which binding is half-saturated. Consider `N#Cc1c(O)c2c(-c3ccc(-c4ccccc4O)cc3)csc2[nH]c1=O` [A769662], for which the AC50 is 0.0722 µM at AMPK α1β1γ1 [3]; above 40 µM at AMPK α1β2γ1 [4]; above 40 µM on AMPK α1β2γ3 [5]; above 40 µM at AMPK α2β2γ1 [6]; above 40 µM at AMPK α2β2γ3 [7]. Besides, the “enhanced protection of pThr172 compared with AMP” value was found to be 10 fold on AMPK α1β1γ1 [8] and 3 fold at AMPK α2β1γ1. The EC50 is 0.046 µM on AMPK α1β1γ1 [8] (setting [15]); 4.7 µM on AMPK α1β2γ1 [9] (setting [15]); above 40 µM at AMPK α1β2γ3 [10] (setting [15]); 2.32 µM at AMPK α2β2γ1 [11] (setting [15]); 5.6 µM at AMPK α2β2γ3 [12] (setting [15]). In addition, the “protection of α-pThr172/174 from PP2Aα” value on AMPK α1β1γ1 [8] (setting [16]), at AMPK α1β2γ1 [9] (setting [16]), at AMPK α1β2γ3 [10] (setting [16]), at AMPK α2β1γ1 (setting [16]), at AMPK α2β2γ1 [11] (setting [16]) and on AMPK α2β2γ3 [12] (setting [16]) was above 70% in each case. In addition, the results for the Kd on BAP-tagged AMPK α1β1γ1 [13] and on BAP-tagged AMPK α1β1γ1 [14] were 0.03 µM and 0.048 µM, respectively. Moreover, the SPR binding result on BAP-tagged AMPK α2β2γ1 was “negligible; also recorded: could not detect any binding”.
